Assay results as given in US5962415A, “Compositions comprising a peptide inhibitor of nuclear protein translocation and an immunosuppressant and methods of use thereof” (Bristol-Myers Squibb Co., priority 1998, dated 1999).

Tested on: THP-1 human monocytic cells
Test: LPS-stimulated cytokine (TNF-α, IL-8) production in THP-1 cells
Type: cell-based
Details: 5 μM or 10 μM, 2 hr preincubation, 5 hr LPS stimulation, FIG. 2
Procedure: Amounts of TNF-α, IL-6, IL-8 and IL-10 were determined using the ELISA kits obtained from Genzyme following the manufacturer's instructions.
THP-1 control cells were harvested, washed and set up in RPMI 1640, 10% fetal calf serum, at a concentration of 2.56×10^6 cells/ml. Phosphate buffered saline ("PBS") or one of the two respective polypeptides SV40MEM or SV40 (a peptide having only the SV40 large T antigen NLS sequence) were added to the cells at a concentration of 10 μM or 20 μM. The cells were then plated into a 96-well plate with 0.1 ml/well. The plate was then incubated for 2 hr at 37° C. in a 5% CO2 atmosphere. Following the initial incubation, media or a titration of LPS was added to each of the wells in a volume of 0.1 ml. Thus, the final concentrations of polypeptides were 5 μM or 10 μM. Following 5 hr of LPS stimulation, supernatants were taken and TNF-α and IL-8 levels were determined by ELISA. In addition, cells treated with PBS or polypeptides, but not incubated with LPS, were removed at the time of supernatant removal to determine the viability of the cells following 7 hr of contact with the polypeptides.
This experiment was conducted to compare the inhibitory effect of the SV40MEM polypeptide and other inhibitory polypeptides on LPS induction of cytokine production. THP-1 control cells (ATCC 9/95 stock) were harvested, washed and set up in RPMI 1640, 10% fetal calf serum as described in Example 2. The cells were incubated for 2 hr with PBS or (1) the FGF signal sequence, (2) a polypeptide having the FGF signal sequence and the NLS of NF-κB p50 on the carboxy terminus of the signal sequence, (3) the SV40MEM polypeptide comprised of L-amino acids, or (4) the SV40MEM polypeptide comprised of D-amino acids at a final concentration of 5 μM. The cells were then plated into a 96-well plate with 0.1 ml/well. The plate was then incubated for 2 hr at 37° C. in a 5% CO2 atmosphere. Following the initial incubation, media or a titration of LPS was added to each of the wells in a volume of 0.01 ml/well. Following 5 hr of LPS stimulation, supernatants were taken and TNF-α levels were determined by ELISA.

PKKKRKVAAVALLPAVLLALLAPKKKRKVC [SV40MEM, FGF signal peptide hydrophobic region flanked by SV40 large T antigen NLS]
TNF-α production: inhibited TNF-α production in a dose-dependent manner
